System: 994946-033-R-J1-PDC complex spheroid viability
Test: Anticancer human tumor 994946-033-R-J1-PDC patient-derived melanoma cell line growth inhibition [POLQ]
Settings: for IC50: curve of first compound; for viability, T/C: stronger effect = lower value
How it was run: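 PDC + HUVEC + MSC complex spheroids; POLQ inhibitors ± partner drugs; top conc. at/near clinical Cmax, else 10 microM (SN-38 1 microM), half-log dilutions; 37 degrees C, 5% CO2.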
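Also: spheroids exposed to drugs for 7 days.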
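For viability, T/C in this document: 100% = DMSO vehicle treated spheroids.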

`CC(=O)O[C@H]1C(=O)[C@@]2(C)[C@H]([C@H](OC(=O)c3ccccc3)[C@]3(O)C[C@H](OC(=O)[C@H](O)[C@@H](NC(=O)c4ccccc4)c4ccccc4)C(C)=C1C3(C)C)[C@]1(OC(C)=O)CO[C@@H]1C[C@@H]2O` + Nc1ccc(C#CCN(C(=O)Cc2ncc(C(F)(F)F)cc2C(F)(F)F)c2ccc(F)cc2)nn1 was tested, and the IC50 (second compound 0.0316 µM) was under 0.00949 µM, the IC50 (second compound 0.1 µM) was under 0.00949 µM and the IC50 (second compound 0.316 µM) was under 0.00949 µM. The IC50 (second compound 1 µM) was under 0.00949 µM, the IC50 (second compound 3.16 µM) was under 0.00949 µM and the IC50 (second compound 10 µM) was under 0.00949 µM. For the same compound, the viability, T/C (second compound 0.0316 µM, first compound 0.00949 µM) was 20.4%, the viability, T/C (second compound 0.0316 µM, first compound 0.03 µM) was 18.5% and the viability, T/C (second compound 0.0316 µM, first compound 0.0949 µM) was 14.8%. It also gave a viability, T/C (second compound 0.0316 µM, first compound 0.3 µM) of 22%, a viability, T/C (second compound 0.0316 µM, first compound 0.949 µM) of 13.5% and a viability, T/C (second compound 0.0316 µM, first compound 3 µM) of 12%. It also gave a viability, T/C (second compound 0.1 µM, first compound 0.00949 µM) of 25.9%, a viability, T/C (second compound 0.1 µM, first compound 0.03 µM) of 23.6% and a viability, T/C (second compound 0.1 µM, first compound 0.0949 µM) of 19.4%. For the same compound, the viability, T/C (second compound 0.1 µM, first compound 0.3 µM) was 15.9%, the viability, T/C (second compound 0.1 µM, first compound 0.949 µM) was 9.63% and the viability, T/C (second compound 0.1 µM, first compound 3 µM) was 13.3%. The viability, T/C (second compound 0.316 µM, first compound 0.00949 µM) was 22.3%, the viability, T/C (second compound 0.316 µM, first compound 0.03 µM) was 20.8% and the viability, T/C (second compound 0.316 µM, first compound 0.0949 µM) was 20.4%. It also gave a viability, T/C (second compound 0.316 µM, first compound 0.3 µM) of 15.9%, a viability, T/C (second compound 0.316 µM, first compound 0.949 µM) of 13.8% and a viability, T/C (second compound 0.316 µM, first compound 3 µM) of 13.9%. For the same compound, the viability, T/C (second compound 1 µM, first compound 0.00949 µM) was 29.7%, the viability, T/C (second compound 1 µM, first compound 0.03 µM) was 24.9% and the viability, T/C (second compound 1 µM, first compound 0.0949 µM) was 20%. It also gave a viability, T/C (second compound 1 µM, first compound 0.3 µM) of 20%, a viability, T/C (second compound 1 µM, first compound 0.949 µM) of 15.3% and a viability, T/C (second compound 1 µM, first compound 3 µM) of 13.2%. The viability, T/C (second compound 3.16 µM, first compound 0.00949 µM) was 29.2%, the viability, T/C (second compound 3.16 µM, first compound 0.03 µM) was 24.2% and the viability, T/C (second compound 3.16 µM, first compound 0.0949 µM) was 18.4%. It also gave a viability, T/C (second compound 3.16 µM, first compound 0.3 µM) of 15.3%, a viability, T/C (second compound 3.16 µM, first compound 0.949 µM) of 14.1% and a viability, T/C (second compound 3.16 µM, first compound 3 µM) of 12.1%. It also gave a viability, T/C (second compound 10 µM, first compound 0.00949 µM) of 24.8%, a viability, T/C (second compound 10 µM, first compound 0.03 µM) of 24% and a viability, T/C (second compound 10 µM, first compound 0.0949 µM) of 25%. For the same compound, the viability, T/C (second compound 10 µM, first compound 0.3 µM) was 18%, the viability, T/C (second compound 10 µM, first compound 0.949 µM) was 18.9% and the viability, T/C (second compound 10 µM, first compound 3 µM) was 12.2%.

`CC1COCCN1c1cc(C2(S(C)(=N)=O)CC2)nc(-c2ccnc3[nH]ccc23)n1` (centres undefined) + Cc1cccc(N(C)C(=O)C2C(O)CCN2c2nc(C)cc(C(F)(F)F)c2C#N)c1 showed an IC50 (second compound 0.0316 µM) of over 10 µM, an IC50 (second compound 0.1 µM) of 4.26 µM and an IC50 (second compound 0.316 µM) of 4.2 µM. It also gave an IC50 (second compound 1 µM) of 1.87 µM, an IC50 (second compound 3.16 µM) of over 10 µM and an IC50 (second compound 10 µM) of 6.24 µM. For the same compound, the viability, T/C (second compound 0.0316 µM, first compound 0.0316 µM) was 103%, the viability, T/C (second compound 0.0316 µM, first compound 0.1 µM) was 111% and the viability, T/C (second compound 0.0316 µM, first compound 0.316 µM) was 112%. The viability, T/C (second compound 0.0316 µM, first compound 1 µM) was 61.2%, the viability, T/C (second compound 0.0316 µM, first compound 3.16 µM) was 59.8% and the viability, T/C (second compound 0.0316 µM, first compound 10 µM) was 46.8%. It also gave a viability, T/C (second compound 0.1 µM, first compound 0.0316 µM) of 71.6%, a viability, T/C (second compound 0.1 µM, first compound 0.1 µM) of 113% and a viability, T/C (second compound 0.1 µM, first compound 0.316 µM) of 109%. For the same compound, the viability, T/C (second compound 0.1 µM, first compound 1 µM) was 82.2%, the viability, T/C (second compound 0.1 µM, first compound 3.16 µM) was 58.8% and the viability, T/C (second compound 0.1 µM, first compound 10 µM) was 28.4%. For the same compound, the viability, T/C (second compound 0.316 µM, first compound 0.0316 µM) was 110%, the viability, T/C (second compound 0.316 µM, first compound 0.1 µM) was 117% and the viability, T/C (second compound 0.316 µM, first compound 0.316 µM) was 104%. The viability, T/C (second compound 0.316 µM, first compound 1 µM) was 78.8%, the viability, T/C (second compound 0.316 µM, first compound 3.16 µM) was 48.8% and the viability, T/C (second compound 0.316 µM, first compound 10 µM) was 48.4%. It also gave a viability, T/C (second compound 1 µM, first compound 0.0316 µM) of 101%, a viability, T/C (second compound 1 µM, first compound 0.1 µM) of 92% and a viability, T/C (second compound 1 µM, first compound 0.316 µM) of 76.2%. The viability, T/C (second compound 1 µM, first compound 1 µM) was 64.6%, the viability, T/C (second compound 1 µM, first compound 3.16 µM) was 36.8% and the viability, T/C (second compound 1 µM, first compound 10 µM) was 33.7%. It also gave a viability, T/C (second compound 3.16 µM, first compound 0.0316 µM) of 94.5%, a viability, T/C (second compound 3.16 µM, first compound 0.1 µM) of 110% and a viability, T/C (second compound 3.16 µM, first compound 0.316 µM) of 97.5%. It also gave a viability, T/C (second compound 3.16 µM, first compound 1 µM) of 53.5%, a viability, T/C (second compound 3.16 µM, first compound 3.16 µM) of 53.2% and a viability, T/C (second compound 3.16 µM, first compound 10 µM) of 52.8%. It also gave a viability, T/C (second compound 10 µM, first compound 0.0316 µM) of 96.5%, a viability, T/C (second compound 10 µM, first compound 0.1 µM) of 103% and a viability, T/C (second compound 10 µM, first compound 0.316 µM) of 92.2%. The viability, T/C (second compound 10 µM, first compound 1 µM) was 75.1%, the viability, T/C (second compound 10 µM, first compound 3.16 µM) was 64.3% and the viability, T/C (second compound 10 µM, first compound 10 µM) was 41.3%.

Source: PubChem BioAssay AID1963827 (Molecular Pharmacology Branch, DTP, NCI, 2024)
